Experimental findings from patent publication USRE48687E1, “Pyridinylaminopyrimidine derivatives, preparation process and use thereof” (Shanghai Allist Pharmaceuticals Co., Ltd., priority 2014, dated 2021) are described below.

Holding throughout (format): cell-based
Common to all, as to conditions: SRB staining
For orientation: In SRB staining, fixed cells bind dye roughly in proportion to their protein.

For assay [1], the system named is human skin cancer cell (A431, wild-type EGFR). In words: Proliferation inhibition (SRB) on human skin cancer cell A431. The text has this: (§1) The pharmacodynamic action of the compound of the present invention in terms of inhibiting the proliferation of cancer cells may be assayed by conventional methods. […] Inhibition ratio (%)=[(blank control OD−inhibitor OD)/blank control OD]×100%
(§2) Blank control OD: the OD value of the well of normally growed cells without the action of a drug.
(§3) Inhibitor OD: the OD value of the well of cells with the action of the added compounds to be screened.
(§4) The median inhibitory concentration (IC50) value is obtained by the software GraphPad Prism 5.0 by the 4-parameter logistic curve fit calculation. Each experiment is repeated three times, and the average IC50 value for three experiments is used as the final index for the inhibitory ability.
(§5) Cells in the logarithmic phase were inoculated to 96-well culture plates (cell density: 5000/well, cell suspension: 180 μl/well), and cultured at 37° C. under 5% CO2 for 24 hours. After the culturing, the cells adhered to the well walls. Each of compounds was dissolved in DMSO in advance to formulate a […] stock solution. Upon testing, the stock solution was diluted with complete medium to 10 times the target concentration in another 96-cell plate. And then the compound was added at 20 μl/cell in the 96-well plate in which the cells were inoculated, i.e. the target concentration could be reached. The well for each concentration was triplicated, and the blank control was established. Cells continued to be cultured at 37° C. under 5% CO2 for 72 hours. After the termination of culturing, 50 μl pre-cooled (4° C.) 50% trichloroacetic acid, i.e., TCA was added to each of wells (final concentration=10%), and was placed at 4° C. for 1 hour to fix the cells. The resulting matter was washed with purified water for at least 5 times, and dried naturally in air or at 60° C. in an oven. 4 mg/ml Sulforhodamine B (SRB) solution prepared by 1% glacial acetic acid/purified water was added at 100 μl/well to each well so as to stain for 1 hour at room temperature. The supernatant was discarded. The residue was washed with 1% acetic acid for at least 5 times to remove the non-specifically binding, and dried for use. To each well was added 150 μl of 10 mM Tris-HCl solution for dissolving the contents therein.

In assay [2] the test system is human lung cancer cell (HCC827, EGFR Exon 19 deletion activating mutation). In words: Proliferation inhibition (SRB) on human lung cancer cell HCC827.
Description: as §1, §2, §3, §4, §5

Assay [3] deals with human lung cancer cell (H1975, EGFR L858R/T790M resistant mutation). In words: Proliferation inhibition (SRB) on human lung cancer cell H1975.
Description: as §1, §2, §3, §4, §5

Consider `C=CC(=O)Nc1cc(Nc2nccc(-c3cn(C)c4ccccc34)n2)c(OC)cc1N(C)CCN(C)C` [AZD9291, reference compound], for which the IC50 – broadly, the point on the concentration scale where inhibition reaches its midpoint – amounted to 70.4 nM in assay [1] (Homo sapiens, A-431, 72 hours) and 3.8 nM in assay [2] (Homo sapiens, 72 hours).

Consider `C=CC(=O)Nc1cc(Nc2ncc(Cl)c(-c3cn(C)c4ccccc34)n2)c(OC(C)C)nc1N(C)CCN(C)C` [Example 1 compound, N-{2-{[2-(dimethylamino)ethyl](methyl)amino}-6-isopropyloxy-5-{5-chloro-[4-(1-methyl-1H-indol-3-yl)pyrimidin-2-yl]amino}pyridin-3-yl}acrylamide], for which the 50% inhibitory concentration (IC50) was found to be 5.64 nM in assay [3] (72 hours), 140 nM in assay [1] (72 hours) and 2.15 nM in assay [2] (72 hours).

For the compound `C=CC(=O)Nc1cc(Nc2nccc(-c3cn(C)c4ccccc34)n2)c(OC(C)C)nc1N(C)CCN(C)C` [Example 2 compound, N-{2-{[2-(dimethylamino)ethyl](methyl)amino}-6-isopropyloxy-5-{[4-(1-methyl-1H-indol-3-yl)pyrimidin-2-yl]amino}pyridin-3-yl}acrylamide], the IC50 in assay [3] (Homo sapiens, NCI-H1975, 72 h) worked out at 5.54 nM; in assay [1] (Homo sapiens, A-431, 72 h), 196 nM; in assay [2] (Homo sapiens, HCC827, 72 h), 4.22 nM.

For `C=CC(=O)Nc1cc(Nc2nccc(-c3cn(C)c4ccccc34)n2)c(OCC(F)(F)F)nc1N(C)CCN(C)C` [Example 3 compound, N-{2-{[2-(dimethylamino)ethyl](methyl)amino}-6-(2,2,2-trifluoroethoxyl)-5-{[4-(1-methyl-1H-indol-3-yl)pyrimidin-2-yl]amino}pyridin-3-yl}acrylamide], the concentration for half-maximal inhibition (IC50) was 2.28 nM in assay [3] (Homo sapiens, NCI-H1975, 72 h); 224 nM in assay [1] (Homo sapiens, A-431, 72 h); 1.34 nM in assay [2] (Homo sapiens, HCC827, 72 h).

Take `C=CC(=O)Nc1cc(Nc2ncc(Cl)c(-c3cn(C)c4ccccc34)n2)c(OCC(F)(F)F)nc1N(C)CCN(C)C` [Example 4 compound, N-{2-{[2-(dimethylamino)ethyl](methyl)amino}-6-(2,2,2-trifluoroethoxyl)-5-{5-chloro-[4-(1-methyl-1H-indol-3-yl)pyrimidin-2-yl]amino}pyridin-3-yl}acrylamide]: the concentration for half-maximal inhibition (IC50) in assay [3] (Homo sapiens, NCI-H1975, 72 h) turned out to be 6.15 nM; in assay [1] (Homo sapiens, A-431, 72 h), 164 nM; in assay [2] (Homo sapiens, HCC827, 72 h), 1.92 nM.

With `C=CC(=O)Nc1cc(Nc2nccc(-c3cn(C)c4ccc(F)cc34)n2)c(OC(C)C)nc1N(C)CCN(C)C` [Example 5 compound, N-{2-{[2-(dimethylamino)ethyl](methyl)amino}-6-isopropyloxy-5-{[4-(1-methyl-5-fluoro-1H-indol-3-yl)pyrimidin-2-yl]amino}pyridin-3-yl}acrylamide], the IC50 was 4.83 nM in assay [3] (Homo sapiens, NCI-H1975, 72 h); 181 nM in assay [1] (Homo sapiens, A-431, 72 h); 2.58 nM in assay [2] (Homo sapiens, HCC827, 72 h).

Consider `C=CC(=O)Nc1cc(Nc2nccc(-c3cn(C)c4cc(F)c(F)cc34)n2)c(OC(C)C)nc1N(C)CCN(C)C` [Example 6 compound, N-{2-{[2-(dimethylamino)ethyl](methyl)amino}-6-isopropyloxy-5-{[4-(1-methyl-5,6-difluoro-1H-indol-3-yl)pyrimidin-2-yl]amino}pyridin-3-yl}acrylamide], for which the IC50 was 5.2 nM in assay [3] (Homo sapiens, NCI-H1975, 72 h); 338 nM in assay [1] (Homo sapiens, A-431, 72 h); 2.36 nM in assay [2] (Homo sapiens, HCC827, 72 h).

Turning to `C=CC(=O)Nc1cc(Nc2ncc(Cl)c(-c3cn(C)c4cc(F)ccc34)n2)c(OC(C)C)nc1N(C)CCN(C)C` [Example 7 compound, N-{2-{[2-(dimethylamino)ethyl](methyl)amino}-6-isopropyloxy-5-{5-chloro-[4-(1-methyl-6-fluoro-1H-indol-3-yl)pyrimidin-2-yl]amino}pyridin-3-yl}acrylamide], the 50% inhibitory concentration (IC50) in assay [3] (Homo sapiens, NCI-H1975, 72 h) is 16.7 nM; in assay [1] (Homo sapiens, A-431, 72 h), 307 nM; in assay [2] (Homo sapiens, HCC827, 72 h), 1.4 nM.

With `C=CC(=O)Nc1cc(Nc2ncc(Cl)c(-c3cn(C)c4cc(F)c(F)cc34)n2)c(OC(C)C)nc1N(C)CCN(C)C` [Example 8 compound, N-{2-{[2-(dimethylamino)ethyl](methyl)amino}-6-isopropyloxy-5-{5-chloro-[4-(1-methyl-5,6-difluoro-1H-indol-3-yl)pyrimidin-2-yl]amino}pyridin-3-yl}acrylamide], the half-maximal inhibitory concentration (IC50) is 8.4 nM in assay [3] (Homo sapiens, NCI-H1975, 72 h); 375 nM in assay [1] (Homo sapiens, A-431, 72 h); 5.98 nM in assay [2] (Homo sapiens, HCC827, 72 h).

As to `C=CC(=O)Nc1cc(Nc2ncc(Cl)c(-c3cn(C)c4ccc(F)cc34)n2)c(OC(C)C)nc1N(C)CCN(C)C` [Example 9 compound, N-{2-{[2-(dimethylamino)ethyl](methyl)amino}-6-isopropyloxy-5-{5-chloro-[4-(1-methyl-5-fluoro-1H-indol-3-yl)pyrimidin-2-yl]amino}pyridin-3-yl}acrylamide], the IC50 is 12.6 nM in assay [3] (Homo sapiens, NCI-H1975, 72 h); 697 nM in assay [1] (Homo sapiens, A-431, 72 h); 1.17 nM in assay [2] (Homo sapiens, HCC827, 72 h).

As for `C=CC(=O)Nc1cc(Nc2ncc(F)c(-c3cn(C)c4ccc(F)cc34)n2)c(OC(C)C)nc1N(C)CCN(C)C` [Example 10 compound, N-{2-{[2-(dimethylamino)ethyl](methyl)amino}-6-isopropyloxy-5-{5-fluoro-[4-(1-methyl-5-fluoro-1H-indol-3-yl)pyrimidin-2-yl]amino}pyridin-3-yl}acrylamide], the 50% inhibitory concentration (IC50) in assay [3] (Homo sapiens, NCI-H1975, 72 h) amounted to 5.32 nM; in assay [1] (Homo sapiens, A-431, 72 h), 209 nM; in assay [2] (Homo sapiens, HCC827, 72 h) it was 2.62 nM.

`C=CC(=O)Nc1cc(Nc2ncc(F)c(-c3cn(C)c4ccccc34)n2)c(OC(C)C)nc1N(C)CCN(C)C` [Example 11 compound, N-{2-{[2-(dimethylamino)ethyl](methyl)amino}-6-isopropyloxy-5-{5-fluoro-[4-(1-methyl-1H-indol-3-yl)pyrimidin-2-yl]amino}pyridin-3-yl}acrylamide]: the IC50 came to 7.22 nM in assay [3] (Homo sapiens, NCI-H1975, 72 h); 210 nM in assay [1] (Homo sapiens, A-431, 72 h); 2.23 nM in assay [2] (Homo sapiens, HCC827, 72 h).

On to `C=CC(=O)Nc1cc(Nc2ncc(F)c(-c3cn(C)c4cc(F)c(F)cc34)n2)c(OC(C)C)nc1N(C)CCN(C)C` [Example 12 compound, N-{2-{[2-(dimethylamino)ethyl](methyl)amino}-6-isopropyloxy-5-{5-fluoro-[4-(1-methyl-5,6-difluoro-1H-indol-3-yl)pyrimidin-2-yl]amino}pyridin-3-yl}acrylamide], for which the IC50 turned out to be 9.01 nM in assay [3] (Homo sapiens, NCI-H1975, 72 h); 339 nM in assay [1] (Homo sapiens, A-431, 72 h); 0.96 nM in assay [2] (Homo sapiens, HCC827, 72 h).

Turning to `C=CC(=O)Nc1cc(Nc2nccc(-c3cn(C)c4cc(F)ccc34)n2)c(OC(C)C)nc1N(C)CCN(C)C` [Example 13 compound, N-{2-{[2-(dimethylamino)ethyl](methyl)amino}-6-isopropyloxy-5-{[4-(1-methyl-6-fluoro-1H-indol-3-yl)pyrimidin-2-yl]amino}pyridin-3-yl}acrylamide], the concentration for half-maximal inhibition (IC50) in assay [3] (Homo sapiens, NCI-H1975, 72 h) turned out to be 5.33 nM; in assay [1] (Homo sapiens, A-431, 72 h), 209 nM; in assay [2] (Homo sapiens, HCC827, 72 h), 2.62 nM.

Regarding `C=CC(=O)Nc1cc(Nc2ncc(F)c(-c3cn(C)c4ccccc34)n2)c(OCC(F)(F)F)nc1N(C)CCN(C)C` [Example 14 compound, N-{2-{[2-(dimethylamino)ethyl](methyl)amino}-6-(2,2,2-trifluoroethoxyl)-5-{5-fluoro-[4-(1-methyl-1H-indol-3-yl)pyrimidin-2-yl]amino}pyridin-3-yl}acrylamide], the 50% inhibitory concentration (IC50) in assay [3] (Homo sapiens, NCI-H1975, 72 h) stood at 5.17 nM; in assay [1] (Homo sapiens, A-431, 72 h) it was 242 nM; in assay [2] (Homo sapiens, HCC827, 72 h), 0.77 nM.

As for `C=CC(=O)Nc1cc(Nc2nccc(-c3cn(C)c4ccc(F)cc34)n2)c(OCC(F)(F)F)nc1N(C)CCN(C)C` [Example 15 compound, N-{2-{[2-(dimethylamino)ethyl](methyl)amino}-6-(2,2,2-trifluoroethoxyl)-5-{[4-(1-methyl-5-fluoro-1H-indol-3-yl)pyrimidin-2-yl]amino}pyridin-3-yl}acrylamide], the half-maximal inhibitory concentration (IC50) in assay [3] (Homo sapiens, NCI-H1975, 72 h) was 6.28 nM; in assay [1] (Homo sapiens, A-431, 72 h), 337 nM; in assay [2] (Homo sapiens, HCC827, 72 h), 0.69 nM.

For `C=CC(=O)Nc1cc(Nc2ncc(Cl)c(-c3cn(C)c4ccccc34)n2)c(OC(C)C)nc1N(C)CCN(C)C` [Example 16 compound, N-{2-{[2-(dimethylamino)ethyl](methyl)amino}-6-isopropyloxy-5-{5-chloro-[4-(1-methyl-1H-indol-3-yl)pyrimidin-2-yl]amino}pyridin-3-yl}acrylamide methanesulfonate], the IC50 in assay [3] (Homo sapiens, NCI-H1975, 72 h) came out at 5.43 nM; in assay [1] (Homo sapiens, A-431, 72 h) it was 273 nM; in assay [2] (Homo sapiens, HCC827, 72 h) it was 1.45 nM.

On to `C=CC(=O)Nc1cc(Nc2ncc(Cl)c(-c3cn(C)c4cc(F)c(F)cc34)n2)c(OC(C)C)nc1N(C)CCN(C)C` [Example 17 compound, N-{2-{[2-(dimethylamino)ethyl](methyl)amino}-6-isopropyloxy-5-{5-chloro-[4-(1-methyl-5,6-difluoro-1H-indol-3-yl)pyrimidin-2-yl]amino}pyridin-3-yl}acrylamide methanesulfonate], for which the concentration for half-maximal inhibition (IC50) in assay [3] (72 hours, methanesulfonate) was determined as 7.63 nM; in assay [2] (72 hours, methanesulfonate), 5.56 nM.
